Source: patent US20230406885A1, “CYCLIC PEPTIDES FOR TRAPPING INTERLEUKIN-1 BETA” (MERCK SHARP & DOHME LLC, priority 2022, published 2023)
pIC50: −log10 of the molar value. *1 amine or outer side, *2 acyl side, *3 side chain or, on linkers, in order; H or OH if unused. Where a SMILES comes first, the peptide text is derived from it. [ ]: non-standard residue; d: D form. Trp(4-Cl)(βS-Me) = C[C@@H](c1c[nH]c2cccc(Cl)c12)[C@H](N)C(=O)O; Trp(βS-Me,4-F) = C[C@@H](c1c[nH]c2cccc(F)c12)[C@H](N)C(=O)O; Bip(4'-COOH) = N[C@@H](Cc1ccc(-c2ccc(C(=O)O)cc2)cc1)C(=O)O; X1 = CC(=O)N1CCN(c2ccc(C[C@H](N[*:1])C(=O)[*:2])cn2)CC1; 1Nal(3S-Me) = C[C@@H](c1cccc2ccccc12)[C@H](N)C(=O)O; Phe(4-COOH) = N[C@@H](Cc1ccc(C(=O)O)cc1)C(=O)O; Trp(7-aza) = N[C@@H](Cc1c[nH]c2ncccc12)C(=O)O; h3Pal(5-CN) = N#Cc1cncc(CC[C@H](N)C(=O)O)c1; Pro(4R-NH2) = N[C@H]1CN[C@H](C(=O)O)C1; 1Nal = N[C@@H](Cc1cccc2ccccc12)C(=O)O; AEF = NCCOc1ccc(C[C@H](N)C(=O)O)cc1; hTyr = N[C@@H](CCc1ccc(O)cc1)C(=O)O; Aad = N[C@@H](CCCC(=O)O)C(=O)O; dNMeA = CN[C@H](C)C(=O)O; Dab = NCC[C@H](N)C(=O)O; Nva = CCC[C@H](N)C(=O)O; Dap = NC[C@H](N)C(=O)O; Aib = CC(C)(N)C(=O)O

Each compound was assayed against T1, Recombinant human IL-1β (Homo sapiens, UniProt P01584) (assay: IL-6 assay in MRC5 cells: inhibition of IL-1β induced IL-6 secretion (AlphaLISA)). Settings: inhibition of IL-1β induced IL-6 secretion in MRC5 cells; IL-1β pre-incubated 1 hour with compound; read-out: MRC5 IC50.
T1 construct: purchased BioLegend 579404
T1 sequence (P01584 117-269): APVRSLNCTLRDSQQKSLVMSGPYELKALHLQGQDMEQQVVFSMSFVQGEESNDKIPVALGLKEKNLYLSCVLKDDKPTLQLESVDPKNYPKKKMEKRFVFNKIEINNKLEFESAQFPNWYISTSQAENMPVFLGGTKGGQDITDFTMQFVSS
Type: cell-based
How it was run: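 IL-1β at 2×EC80 in seeding medium (EMEM, 0.025% BSA) preincubated 1 h at ambient temperature with compound, then 3000 MRC5 cells/well added and incubated overnight at 37 °C, 5% CO2. IL-6 in conditioned medium quantified by AlphaLISA; IC50 from 4-parameter logistic fit.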

| Structure (SMILES) | pIC50 |
| --- | --- |
| CC(C)C[C@@H]1NC(=O)[C@H](CCCC(N)=O)NC(=O)[C@H](Cc2ccc(-c3ccc(C(=O)O)cc3)cc2)NC(=O)CNC(=O)[C@@H](C)N(C)C(=O)[C@H](CC(=O)O)NC(=O)[C@H]([C@@H](C)c2c[nH]c3cccc(F)c23)NC(=O)[C@@H]2C[C@@H](N)CN2C(=O)CNC(=O)[C@H](Cc2ccc(C(=O)O)cc2)NC(=O)[C@H](Cc2c[nH]c3ccccc23)NC(=O)[C@H](Cc2ccc(-c3ccc(C(=O)O)cc3)cc2)NC(=O)[C@H](CCc2ccc(O)cc2)NC(=O)[C@@H](C)NC1=O [Example 63] (cyclo([Bip(4'-COOH)]W[Phe(4-COOH)]G[Pro(4R-NH2)][Trp(βS-Me,4-F)]D[dNMeA]G[Bip(4'-COOH)][Aad](NH2)L[dA][hTyr])) | 10.20 |
| CC(=O)NCCOc1ccc(C[C@@H]2NC(=O)[C@H](CCc3ccc(O)cc3)NC(=O)[C@@H](C)NC(=O)CNC(=O)[C@H](CCCCN)NC(=O)[C@H](Cc3ccc(-c4ccc(C(=O)O)cc4)cc3)NC(=O)CNC(=O)[C@@H](C)N(C)C(=O)[C@H](CC(=O)O)NC(=O)[C@H]([C@@H](C)c3cccc4ccccc34)NC(=O)[C@@H]3C[C@@H](N)CN3C(=O)CNC(=O)[C@H](Cc3ccc(C(=O)O)cc3)NC(=O)[C@H](Cc3c[nH]c4ccccc34)NC2=O)cc1 [Example 108] (cyclo([AEF](Ac)W[Phe(4-COOH)]G[Pro(4R-NH2)][1Nal(3S-Me)]D[dNMeA]G[Bip(4'-COOH)]KG[dA][hTyr])) | 9.99 |
| CC(C)C[C@@H]1NC(=O)[C@H](CCCCN)NC(=O)[C@H](Cc2ccc(-c3ccc(C(=O)O)cc3)cc2)NC(=O)CNC(=O)[C@@H](C)N(C)C(=O)[C@H](CC(=O)O)NC(=O)[C@H]([C@@H](C)c2c[nH]c3cccc(Cl)c23)NC(=O)[C@@H]2C[C@@H](N)CN2C(=O)CNC(=O)[C@H](Cc2ccc(C(=O)O)cc2)NC(=O)[C@H](Cc2c[nH]c3ccccc23)NC(=O)[C@H](Cc2ccc(-c3ccc(C(=O)O)cc3)cc2)NC(=O)[C@H](CCc2ccc(O)cc2)NC(=O)[C@@H](CO)NC1=O [Example 44] (cyclo([Bip(4'-COOH)]W[Phe(4-COOH)]G[Pro(4R-NH2)][Trp(4-Cl)(βS-Me)]D[dNMeA]G[Bip(4'-COOH)]KL[dS][hTyr])) | 9.88 |
| C[C@@H]1C(=O)NCC(=O)N[C@@H](Cc2ccc(-c3ccc(C(=O)O)cc3)cc2)C(=O)N[C@@H](CCCCN)C(=O)N[C@@H](CO)C(=O)N[C@H](CO)C(=O)N[C@@H](CCc2ccc(O)cc2)C(=O)N[C@@H](Cc2ccc(-c3ccc(C(=O)O)cc3)cc2)C(=O)N[C@@H](Cc2c[nH]c3ccccc23)C(=O)N[C@@H](Cc2ccc(C(=O)O)cc2)C(=O)NCC(=O)N2C[C@H](N)C[C@H]2C(=O)N[C@@H]([C@@H](C)c2c[nH]c3cccc(Cl)c23)C(=O)N[C@@H](CC(=O)O)C(=O)N1C [Example 47] (cyclo([Bip(4'-COOH)]W[Phe(4-COOH)]G[Pro(4R-NH2)][Trp(4-Cl)(βS-Me)]D[dNMeA]G[Bip(4'-COOH)]KS[dS][hTyr])) | 9.91 |

Now from value to compound:

| pIC50 | Structure (SMILES) |
| --- | --- |
| 9.76 | C[C@@H]1C(=O)NCC(=O)N[C@@H](Cc2ccc(-c3ccc(C(=O)O)cc3)cc2)C(=O)N[C@@H](Cc2cccc3ccccc23)C(=O)N[C@@H](CCN)C(=O)NC(C)(C)C(=O)N[C@@H](CCc2ccc(O)cc2)C(=O)N[C@@H](Cc2ccc(-c3ccc(C(=O)O)cc3)cc2)C(=O)N[C@@H](Cc2c[nH]c3ccccc23)C(=O)N[C@@H](Cc2ccc(C(=O)O)cc2)C(=O)NCC(=O)N2C[C@H](N)C[C@H]2C(=O)N[C@@H]([C@@H](C)c2cccc3ccccc23)C(=O)N[C@@H](CC(=O)O)C(=O)N1C [Example 16] (cyclo([Bip(4'-COOH)]W[Phe(4-COOH)]G[Pro(4R-NH2)][1Nal(3S-Me)]D[dNMeA]G[Bip(4'-COOH)][1Nal][Dab][Aib][hTyr])) |
| 10.69 | C[C@@H]1C(=O)NCC(=O)N[C@@H](Cc2ccc(-c3ccc(C(=O)O)cc3)cc2)C(=O)N[C@@H](Cc2c[nH]c3ncccc23)C(=O)N[C@@H](CN)C(=O)N[C@H](C)C(=O)N[C@@H](CCc2ccc(O)cc2)C(=O)N[C@@H](Cc2ccc(-c3ccc(C(=O)O)cc3)cc2)C(=O)N[C@@H](Cc2c[nH]c3ccccc23)C(=O)N[C@@H](Cc2ccc(C(=O)O)cc2)C(=O)NCC(=O)N2C[C@H](N)C[C@H]2C(=O)N[C@@H]([C@@H](C)c2cccc3ccccc23)C(=O)N[C@@H](CC(=O)O)C(=O)N1C [Example 29] (cyclo([Bip(4'-COOH)]W[Phe(4-COOH)]G[Pro(4R-NH2)][1Nal(3S-Me)]D[dNMeA]G[Bip(4'-COOH)][Trp(7-aza)][Dap][dA][hTyr])) |
| 9.72 | CCC[C@@H]1NC(=O)[C@H](Cc2c[nH]c3ccccc23)NC(=O)[C@H](Cc2ccc(-c3ccc(C(=O)O)cc3)cc2)NC(=O)CNC(=O)[C@@H](C)N(C)C(=O)[C@H](CC(=O)O)NC(=O)[C@H]([C@@H](C)c2c[nH]c3cccc(F)c23)NC(=O)[C@@H]2C[C@@H](N)CN2C(=O)CNC(=O)[C@H](Cc2ccc(C(=O)O)cc2)NC(=O)[C@H](Cc2c[nH]c3ccccc23)NC(=O)[C@H](Cc2ccc(-c3ccc(C(=O)O)cc3)cc2)NC(=O)[C@H](C)NC(=O)[C@@H](C)NC1=O [Example 79] (cyclo([Bip(4'-COOH)]W[Phe(4-COOH)]G[Pro(4R-NH2)][Trp(βS-Me,4-F)]D[dNMeA]G[Bip(4'-COOH)]W[Nva][dA]A)) |

Same assay, conditions: inhibition of IL-1β induced IL-6 secretion in MRC5 cells; read-out: MRC5 IC50

| pIC50 | Structure (SMILES) |
| --- | --- |
| 10.89 | CC(=O)N1CCN(c2ccc(C[C@@H]3NC(=O)[C@H](CCc4cncc(C#N)c4)NC(=O)[C@@H](C)NC(=O)[C@H](CC(C)C)NC(=O)[C@H](CCC(N)=O)NC(=O)[C@H](Cc4ccc(-c5ccc(C(=O)O)cc5)cc4)NC(=O)CNC(=O)[C@@H](C)N(C)C(=O)[C@H](CC(=O)O)NC(=O)[C@H]([C@@H](C)c4cccc5ccccc45)NC(=O)[C@@H]4C[C@@H](N)CN4C(=O)CNC(=O)[C@H](Cc4ccc(C(=O)O)cc4)NC(=O)[C@H](Cc4c[nH]c5ccccc45)NC3=O)cn2)CC1 [Example 183] (cyclo([X1]W[Phe(4-COOH)]G[Pro(4R-NH2)][1Nal(3S-Me)]D[dNMeA]G[Bip(4'-COOH)]QL[dA][h3Pal(5-CN)])) |
| 10.32 | CC(=O)NCCOc1ccc(C[C@@H]2NC(=O)[C@H](CCc3ccc(O)cc3)NC(=O)[C@@H](C)NC(=O)[C@H](CC(C)C)NC(=O)[C@H](Cc3c[nH]c4ccccc34)NC(=O)[C@H](Cc3ccc(-c4ccc(C(=O)O)cc4)cc3)NC(=O)CNC(=O)[C@@H](C)N(C)C(=O)[C@H](CC(=O)O)NC(=O)[C@H]([C@@H](C)c3c[nH]c4cccc(Cl)c34)NC(=O)[C@@H]3C[C@@H](N)CN3C(=O)CNC(=O)[C@H](Cc3ccc(C(=O)O)cc3)NC(=O)[C@H](Cc3c[nH]c4ccccc34)NC2=O)cc1 [Example 148] (cyclo([AEF](Ac)W[Phe(4-COOH)]G[Pro(4R-NH2)][Trp(4-Cl)(βS-Me)]D[dNMeA]G[Bip(4'-COOH)]WL[dA][hTyr])) |
| 10.07 | CC(=O)NCCOc1ccc(C[C@@H]2NC(=O)[C@H](CCc3ccc(O)cc3)NC(=O)[C@@H](C)N(C)C(=O)[C@H](CN)NC(=O)[C@H](Cc3c[nH]c4ccccc34)NC(=O)[C@H](Cc3ccc(-c4ccc(C(=O)O)cc4)cc3)NC(=O)CNC(=O)[C@@H](C)N(C)C(=O)[C@H](CC(=O)O)NC(=O)[C@H]([C@@H](C)c3cccc4ccccc34)NC(=O)[C@@H]3C[C@@H](N)CN3C(=O)CNC(=O)[C@H](Cc3ccc(C(=O)O)cc3)NC(=O)[C@H](Cc3c[nH]c4ccccc34)NC2=O)cc1 [Example 121] (cyclo([AEF](Ac)W[Phe(4-COOH)]G[Pro(4R-NH2)][1Nal(3S-Me)]D[dNMeA]G[Bip(4'-COOH)]W[Dap][dNMeA][hTyr])) |
